Values after ≈ are worked out from the molar mass of the structure shown.
Key:
C. neoformans [1] = test: In vitro susceptibility testing (MIC / IC80); assay type: cell-based, Cryptococcus neoformans; details: Cryptococcus neoformans; Tables 1-3
Method: Minimal inhibitory concentration (MIC) was determined following the methods of the Clinical Laboratory Standards Institutes (CLSI) with modifications. MIC studies used either RPMI or YNB medium (pH 7.0, 0.2% glucose) buffered with HEPES. […] The compound was serially diluted from 32 to 0.03 μg/ml or 19 to 0.02 μg/ml respectively in a 96 well plate with the respective medium. The yeast inoculum was prepared as described in the CLSI protocol M27-A3 guidelines. Plates were incubated at 37° C. and in the presence of 5% CO2 for 24-96 hours. Against all fungal isolates used in the initial susceptibility screen, the MICs were determined as the lowest concentration of the drug that inhibited 50% of growth compared to the control. MIC80 and MIC100, whose drug concentrations inhibited 80% and 100% growth compared to the control respectively, were also determined. For antibacterial activity, E. coli DH5a and P. aeruginosa PA14 were grown overnight in Luria Bertani (LB) broth at 30° C. The cells were washed with PBS and counted. Then, 300 μL from 2×10^8 cells/mL was spreaded onto LB agar plate using a hockey stick glass spreader. The plate was dried, and wells were punched out using a cut tip. Fifty microliters of different drug concentration was added to the well. The plate was then incubated at 30° C. for 24 hours.

HepG2 = HepG2 toxicity; assay type: cell-based; details: Tables 1-3
A549 = A549 toxicity; assay type: cell-based; details: Tables 1-3
C. neoformans cells = test: In vitro killing activity (K100) assay; assay type: cell-based, Cryptococcus neoformans; details: minimum concentration that kills 100% of C. neoformans cells in 48 h; for MFC: Cryptococcus neoformans
Method: C. neoformans cells from a culture grown overnight were washed in PBS and resuspended in YNB buffered with HEPES at pH 7.4. The cells were counted, and 2×10^4 cells were incubated with different concentration of compounds in a final volume of 10 ml with a final concentration of 0.5% DMSO. The tubes were then incubated at 37° C. with 5% CO2 on a rotary shaker at 200 rpm. Aliquots were taken at time points and diluted, and […] were plated onto Yeast Extract-Peptone-Dextrose (YPD) plates. YPD plates were incubated in a 30° C. incubator and after 48 h, the numbers of CFU were counted and recorded.

C. neoformans [2] = test: In vitro susceptibility (MIC80) assay; assay type: cell-based; details: Cryptococcus neoformans; lowest concentration that inhibited 80% of growth; YNB pH 7.0, HEPES, 37° C., 5% CO2
Method: MICs was determined following the methods of the Clinical and Laboratory Standards Institutes (CLSI) with modifications. Yeast Nitrogen Base (YNB) medium (pH 7.0, 0.2% glucose) buffered with HEPES was used for MIC studies. […] The compound was serially diluted from 16 to 0.03 μg/ml, in a 96-well plate. The inoculum was prepared as described in the CLSI protocol M27A3 guidelines. The plates were incubated at 37° C. with 5% CO2 for 24 to 72 h and the optical density was measure at 450 nm. The MICs was determined as the lowest concentration of the compound that inhibited 80% of growth compared to the control.

SMILES | IC80 (C. neoformans [1]) | HepG2 (HepG2) | A549 (A549) | MFC (C. neoformans cells) | MIC80 (C. neoformans [2]) | K100* (μg/mL) (C. neoformans cells)
Cc1ccc(O)c(/C=N/NC(=O)c2cc(Br)ccc2O)c1 | 0.25 µg/mL (≈ 0.716 µM) | 16 µg/mL | 16 µg/mL |  |  | 
Cc1ccc(O)c(/C=N/NC(=O)c2ccc(Br)cc2Br)c1 | 1 µg/mL (≈ 2.43 µM) | 16 µg/mL | 32 µg/mL |  |  | 
Cc1ccc(O)c(/C=N/NC(=O)c2cc(Br)ccc2Br)c1 | 1 µg/mL (≈ 2.43 µM) | 32 µg/mL | 32 µg/mL |  |  | 
O=C(N/N=C/c1cc(Cl)ccc1O)c1ccc(Br)cc1Br | 0.25 µg/mL (≈ 0.578 µM) | 64 µg/mL | 64 µg/mL |  |  | 
O=C(N/N=C/c1cc(Cl)ccc1O)c1cccc(F)c1F | 1 µg/mL (≈ 3.22 µM) | 32 µg/mL | 72 µg/mL |  |  | 
O=C(N/N=C/c1cc(Cl)ccc1O)c1cc(Br)ccc1Br | 0.25 µg/mL (≈ 0.578 µM) | 32 µg/mL | 59 µg/mL |  |  | 
O=C(N/N=C/c1cc(Cl)cc(Cl)c1O)c1ccc(Br)cc1Br | 1 µg/mL (≈ 2.14 µM) | 64 µg/mL | >64 µg/mL |  |  | 
O=C(N/N=C/c1cc(Cl)cc(Cl)c1O)c1cc(Br)ccc1Br | 0.5 µg/mL (≈ 1.07 µM) | 32 µg/mL | 32 µg/mL |  |  | 
O=C(N/N=C/c1c(O)ccc2ccccc12)c1ccc(Br)cc1Br | 0.12 µg/mL (≈ 0.268 µM) | >32 µg/mL | 16 µg/mL |  |  | 
O=C(N/N=C/c1c(O)ccc2ccccc12)c1cc(Br)ccc1Br | 0.25 µg/mL (≈ 0.558 µM) | 16 µg/mL | 32 µg/mL |  |  | 
O=C(N/N=C/c1ccc(Br)cc1O)c1cccc(Br)c1 | 0.5 µg/mL (≈ 1.26 µM) | 9 µg/mL | >32 µg/mL |  |  | 
O=C(N/N=C/c1ccc(Br)cc1O)c1ccc(Br)cc1Br | 0.06 µg/mL (≈ 0.126 µM) | >64 µg/mL | >32 µg/mL |  |  | 
O=C(N/N=C/c1ccc(Br)cc1O)c1cccc(F)c1F | 0.5 µg/mL (≈ 1.41 µM) | 16 µg/mL | 16 µg/mL |  |  | 
O=C(N/N=C/c1cc(Br)ccc1O)c1ccc(Br)cc1Br | 0.12 µg/mL (≈ 0.252 µM) | 59 µg/mL | >32 µg/mL |  |  | 
O=C(N/N=C/c1cc(Br)ccc1O)c1cc(Br)ccc1Br | 0.25 µg/mL (≈ 0.524 µM) | 32 µg/mL | 16 µg/mL |  |  | 
O=C(N/N=C/c1cc(Cl)ccc1O)c1cc(Br)cc(Br)c1 [Compound A40, 3,5-Dibromo-N′-(5-chloro-2-hydroxybenzylidene)benzohydrazide] |  |  |  | 1 µg/mL (≈ 2.31 µM) | 0.12 µg/mL (≈ 0.277 µM) | 
Cc1ccc(O)c(/C=N/NC(=O)c2cc(Br)cc(Br)c2)c1 [Compound A41, 3,5-Dibromo-N′-(2-hydroxy-5-methylbenzylidene)benzohydrazide] |  |  |  | 1 µg/mL (≈ 2.43 µM) | 0.5 µg/mL (≈ 1.21 µM) | 
O=C(N/N=C/c1cc(Br)cc(Br)c1O)c1cccc(Br)c1Br [Compound A42, 2,3-Dibromo-N′-(3,5-dibromo-2-hydroxybenzylidene)benzohydrazide] |  |  |  | 0.5 µg/mL (≈ 0.9 µM) | 0.5 µg/mL (≈ 0.9 µM) | 

SMILES | IC80 (C. neoformans [1]) | HepG2 (HepG2) | A549 (A549) | MFC (C. neoformans cells) | MIC80 (C. neoformans [2]) | K100* (μg/mL) (C. neoformans cells)
O=C(N/N=C/c1cc(Cl)cc(Cl)c1O)c1cccc(Br)c1Br [Compound A43, 2,3-Dibromo-N′-(3,5-dichloro-2-hydroxybenzylidene)benzohydrazide] |  |  |  | 1 µg/mL (≈ 2.14 µM) | 1 µg/mL (≈ 2.14 µM) | 
O=C(N/N=C/c1cc(Br)cc(Br)c1O)c1ccc(CF)cc1 [Compound A44, 4-Fluromethyl-N′-(3,5-dibromo-2-hydroxybenzylidene)benzohydrazide] |  |  |  | 0.5 µg/mL (≈ 1.16 µM) | 0.5 µg/mL (≈ 1.16 µM) | 
C#Cc1ccc(C(=O)N/N=C/c2cc(Br)cc(Br)c2O)cc1 [Compound A46, 4-Ethynyl-N′-(3,5-dibromo-2-hydroxybenzylidene)benzohydrazide] |  |  |  |  | 0.12 µg/mL (≈ 0.284 µM) | Fungistatic
O=C(N/N=C/c1cc(Br)cc(Br)c1O)c1ncc(Br)cn1 [Compound H1, 5-Bromo-N′-(3,5-dibromo-2-hydroxybenzylidene)pyrimidine-2-carbohydrazide] |  |  |  | > 2 µg/mL | 0.25 µg/mL (≈ 0.522 µM) | 
O=C(N/N=C/c1cc(Br)ccc1O)c1ccc(Br)s1 [Compound H2, 5-Bromo-N′-(5-bromo-2-hydroxybenzylidene)thiophene-2-carbohydrazide] |  |  |  | > 0.5 µg/mL | 0.12 µg/mL (≈ 0.297 µM) | 
O=C(N/N=C/c1ccc(Br)cc1O)c1ccc(Br)s1 [Compound H3, 5-Bromo-N′-(4-bromo-2-hydroxybenzylidene)thiophene-2-carbohydrazide] |  |  |  | > 0.5 µg/mL | 0.12 µg/mL (≈ 0.297 µM) | 
O=C(N/N=C/c1cc(Br)cc(Br)c1O)c1ccc(Br)s1 [Compound H4, 5-Bromo-N′-(3,5-dibromo-2-hydroxybenzylidene)thiophene-2-carbohydrazide] |  |  |  | > 0.25 µg/mL | 0.06 µg/mL (≈ 0.124 µM) | 
O=C(N/N=C/c1c(O)ccc2ccccc12)c1ccc(Br)s1 [Compound H5, 5-Bromo-N′-((2-hydroxynaphthalen-1-yl)methylene)thiophene-2-carbohydrazide] |  |  |  | > 0.5 µg/mL | 0.12 µg/mL (≈ 0.32 µM) | 
O=C(N/N=C/c1cc(Br)ccc1O)c1cc(Br)c(Br)o1 [Compound H7, 4,5-Dibromo-N′-(5-bromo-2-hydroxybenzylidene) furan-2-carbohydrazide] |  |  |  | > 1 µg/mL | 0.25 µg/mL (≈ 0.535 µM) | 
O=C(NN=Cc1ccc(Br)cc1O)c1cc(Br)c(Br)o1 [Compound H8, 4,5-Dibromo-N′-(4-bromo-2-hydroxybenzylidene)furan-2-carbohydrazide] |  |  |  | > 0.25 µg/mL | 0.06 µg/mL (≈ 0.129 µM) | 
O=C(N/N=C/c1cc(Br)cc(Br)c1O)c1cc(Br)c(Br)o1 [Compound H9, 4,5-Dibromo-N′-(3,5-dibromo-2-hydroxybenzylidene)furan-2-carbohydrazide] |  |  |  | > 0.5 µg/mL | 0.12 µg/mL (≈ 0.22 µM) | 
O=C(N/N=C/c1c(O)ccc2ccccc12)c1cc(Br)c(Br)o1 [Compound H10, 4,5-Dibromo-N′-(2-hydroxynaphthalen-1-yl)methylenefuran-2-carbohydrazide] |  |  |  | > 0.5 µg/mL | 0.12 µg/mL (≈ 0.274 µM) | 
O=C(N/N=C/c1cc(Br)ccc1O)c1cc(Br)co1 [Compound H11, 4-Bromo-N′-(5-bromo-2-hydroxybenzylidene)furan-2-carbohydrazide] |  |  |  | > 1 µg/mL | 0.25 µg/mL (≈ 0.644 µM) | 
O=C(N/N=C/c1ccc(Br)cc1O)c1cc(Br)co1 [Compound H12, 4-Bromo-N′-(4-bromo-2-hydroxybenzylidene) furan-2-carbohydrazide] |  |  |  | > 2 µg/mL | 0.5 µg/mL (≈ 1.29 µM) | 
O=C(N/N=C/c1cc(Br)cc(Br)c1O)c1cc(Br)co1 [Compound H13, 4-bromo-N′-(3,5-dibromo-2-hydroxybenzylidene)furan-2-carbohydrazide] |  |  |  | > 0.25 µg/mL | 0.06 µg/mL (≈ 0.129 µM) | 
O=C(N/N=C/c1ccc(Br)cc1O)c1ccoc1 [Compound H14, N′-(4-bromo-2-hydroxybenzylidene) furan-3-carbohydrazide] |  |  |  | > 1 µg/mL | 0.5 µg/mL (≈ 1.62 µM) | 
O=C(N/N=C/c1cc(Br)cc(Br)c1O)C1CCOCC1 [Compound H15, N′-(3,5-dibromo-2-hydroxybenzylidene)tetrahydro-2H-pyran-4-carbohydrazide] |  |  |  | > 2 µg/mL | 0.5 µg/mL (≈ 1.23 µM) | 

— patent US11414378B2, “Anti-fungals compounds targeting the synthesis of fungal sphingolipids” (THE RESEARCH FOUNDATION FOR THE STATE UNIVERSITY OF NEW YORK, priority 2017, dated 2022)
